Values quoted from earlier work in patent publication US7179486B1, “Process for preparing sustained release tablets” (Nostrum Pharmaceuticals, Inc., priority 1997, dated 2007).

For `O=C(O)c1cccnc1` [niacin, Niacin], which “dosage release within a one hour period causing a flushing response in most subjects” value is on record?
Its value is “more than 75 mg”.
